{"source": "patent US20190343908A1", "about": "“Therapeutic Combination for the Treatment of Cancer” (Nerium Biotechnology Inc., priority 2011, published 2019)", "key": {"[1]": {"test_system": "LNCaP prostate cancer cell line", "test": "Methyl-Tetrazolium viability assay, LNCaP", "type": "cell-based, human", "details": "for ABSORBANCE: LNCaP, 0.1 μg/mL cisplatin", "excerpt": "The Methyl-Tetrazolium dye assay measures the activity of enzymes in mitochondria. The dye precursor is taken up by cells, where it undergoes reduction to the purple formazan. It measures only the mitochondrial activity and, thus, it is not always a reliable indication of whether the cells themselves are alive or dead, since even a recently dead cell has […] enzyme activity in mitochondria. Intracellular glucose concentration, pH, and time before assay all affect the measurements.\n(§1) The Methyl Tetrazolium, Sulforhodamine B, and Crystal Violet assays were used to assess cell viabilities. The incubation times were 24 hours, 48 hours, and 72 hours. The Nerium oleander extract Anvirzel™ (a hot water extract of oleander obtained from Salud Integral, Honduras) was tested in concentrations ranging from 0.01 ng/mL to 10 ng/mL.\n(§2) Cells were detached by trypsinization (Trypsin-0.25% EDTA, Invitrogen, 25200-072) during the logarithmic phase of culture growth and plated in 96-well plates (18.000 cells/well) (Corning, Costar 359) in a final volume of 200 μl of medium per well. […] The absorbance was measured after 24 hours, 48 hours, and 72 hours of incubation.\nFor the Methyl-Tetrazolium assay, the dye (Sigma, M2128; 5 mg/mL, diluted in phosphate-buffered saline) was added to each well and plates were incubated for 3 hours at 37° C. After the end of the incubation period, the medium was discarded and the cells were rinsed with phosphate-buffered saline. Finally, the formazan crystals were dissolved in dimethylsulphoxide (Sigma, D4540).\n(§3) The optical density of each plate was measured on a μQuant spectrophotometer and the data were analyzed with Gen5 software (μQuant Biomolecular Spectrophotometer MQX200 and Gen5™ Microplate Data Collection & Analysis software, BioTek® Instruments. Inc, April 2008). Absorbance was measured at 570 nm for all assays and a second wavelength was measured in order to subtract noise. For the Methyl-Tetrazolium assay this second wavelength was 630 nm and for the Sulforhodamine B and Crystal Violet assays it was 690 nm."}, "[2]": {"test_system": "HCT-15 (colorectal cancer)", "test": "Crystal Violet viability assay, HCT-15", "type": "cell-based, human", "parameters": "key to CVE Average: absorbance at 570 nm (second wavelength subtracted)", "details": "for CVE Average 24 h / CVE Average 48 h / CVE Average 72 h: HCT-15, Run 1", "excerpt": "The Sulforhodamine B and Crystal Violet assays provide information about protein and were used to complement the Methyl-Tetrazolium dye assay. […] It is used for the quantification of cellular proteins of cultured cells. The assay using Crystal Violet, a dye that binds electrostatically to proteins and stains DNA, provides a reliable, simple assay for measuring viability of cells.\nas §1, §2\nFor the Crystal Violet assay, the medium was removed from the 96-well plates, the plates rinsed with PBS (Sigma, P3813) and then the cells were […] by the addition of 10% formalin (MERCK, 1.04003.2500) for 20 minutes at RT. Formalin was removed and 0.25% aqueous crystal violet (Sigma, HT901), dissolved in water, was added for 10 minutes at RT. Unbound Crystal Violet was rinsed by washing with water and finally 33% acetic acid was added to dissolve the dye.\nas §3"}}, "data": [{"smiles": "N.N.[Cl][Pt][Cl]", "note": "[cisplatin]", "values": [{"measurement": "MTT Average", "setting": "[1]; LNCaP Run 3, 24 h, 0.1 μg/ml CDDP", "value": 0.11}, {"measurement": "MTT Average", "setting": "[1]; LNCaP Run 3, 24 h, 1 μg/ml CDDP", "value": 0.008}, {"measurement": "MTT Average", "setting": "[1]; LNCaP Run 3, 24 h, 10 μg/ml CDDP", "value": 0.017}, {"measurement": "MTT Average", "setting": "[1]; LNCaP Run 3, 24 h, 100 μg/ml CDDP", "value": 0.006}, {"measurement": "MTT Average", "setting": "[1]; LNCaP Run 3, 48 h, 0.1 μg/ml CDDP", "value": 0.157}, {"measurement": "MTT Average", "setting": "[1]; LNCaP Run 3, 48 h, 1 μg/ml CDDP", "value": 0.011}, {"measurement": "MTT Average", "setting": "[1]; LNCaP Run 3, 48 h, 10 μg/ml CDDP", "value": 0.009}, {"measurement": "MTT Average", "setting": "[1]; LNCaP Run 3, 48 h, 100 μg/ml CDDP", "value": 0.009}, {"measurement": "MTT Average", "setting": "[1]; LNCaP Run 3, 72 h, 0.1 μg/ml CDDP", "value": 0.171}, {"measurement": "MTT Average", "setting": "[1]; LNCaP Run 3, 72 h, 1 μg/ml CDDP", "value": 0.01}, {"measurement": "MTT Average", "setting": "[1]; LNCaP Run 3, 72 h, 10 μg/ml CDDP", "value": 0.009}, {"measurement": "MTT Average", "setting": "[1]; LNCaP Run 3, 72 h, 100 μg/ml CDDP", "value": 0.008}, {"measurement": "ABSORBANCE", "setting": "[1]; 48 h", "value": 0.161}, {"measurement": "ABSORBANCE", "setting": "[1]; 72 h", "value": 0.17}, {"measurement": "Average MTT 24 h", "setting": "[1]; Run 1, 0.1 μg/ml CDDP", "value": 0.061}, {"measurement": "Average MTT 48 h", "setting": "[1]; Run 1, 0.1 μg/ml CDDP", "value": 0.116}, {"measurement": "Average MTT 24 h", "setting": "[1]; Run 1, 1 μg/ml CDDP", "value": 0.012}, {"measurement": "Average MTT 48 h", "setting": "[1]; Run 1, 1 μg/ml CDDP", "value": 0.015}, {"measurement": "Average MTT 72 h", "setting": "[1]; Run 1, 1 μg/ml CDDP", "value": 0.016}, {"measurement": "Average MTT 24 h", "setting": "[1]; Run 1, 10 μg/ml CDDP", "value": 0.02}, {"measurement": "Average MTT 48 h", "setting": "[1]; Run 1, 10 μg/ml CDDP", "value": 0.011}, {"measurement": "Average MTT 72 h", "setting": "[1]; Run 1, 10 μg/ml CDDP", "value": 0.01}, {"measurement": "Average MTT 24 h", "setting": "[1]; Run 1, 100 μg/ml CDDP", "value": 0.011}, {"measurement": "Average MTT 48 h", "setting": "[1]; Run 1, 100 μg/ml CDDP", "value": 0.017}, {"measurement": "Average MTT 72 h", "setting": "[1]; Run 1, 100 μg/ml CDDP", "value": 0.01}, {"measurement": "Average MTT 24 h", "setting": "[1]; Run 2, 0.1 μg/ml CDDP", "value": 0.136}, {"measurement": "Average MTT 48 h", "setting": "[1]; Run 2, 0.1 μg/ml CDDP", "value": 0.161}, {"measurement": "Average MTT 72 h", "setting": "[1]; Run 2, 0.1 μg/ml CDDP", "value": 0.17}, {"measurement": "Average MTT 24 h", "setting": "[1]; Run 2, 1 μg/ml CDDP", "value": 0.01}, {"measurement": "Average MTT 48 h", "setting": "[1]; Run 2, 1 μg/ml CDDP", "value": 0.016}, {"measurement": "Average MTT 72 h", "setting": "[1]; Run 2, 1 μg/ml CDDP", "value": 0.026}, {"measurement": "Average MTT 24 h", "setting": "[1]; Run 2, 10 μg/ml CDDP", "value": 0.014}, {"measurement": "Average MTT 48 h", "setting": "[1]; Run 2, 10 μg/ml CDDP", "value": 0.015}, {"measurement": "Average MTT 72 h", "setting": "[1]; Run 2, 10 μg/ml CDDP", "value": 0.012}, {"measurement": "Average MTT 24 h", "setting": "[1]; Run 2, 100 μg/ml CDDP", "value": 0.017}, {"measurement": "Average MTT 48 h", "setting": "[1]; Run 2, 100 μg/ml CDDP", "value": 0.015}, {"measurement": "Average MTT 72 h", "setting": "[1]; Run 2, 100 μg/ml CDDP", "value": 0.012}, {"measurement": "CVE Average 24 h", "setting": "[2]; 0.1 μg/ml CDDP", "value": 0.787}, {"measurement": "CVE Average 48 h", "setting": "[2]; 0.1 μg/ml CDDP", "value": 0.99}, {"measurement": "CVE Average 72 h", "setting": "[2]; 0.1 μg/ml CDDP", "value": 2.312}, {"measurement": "CVE Average 24 h", "setting": "[2]; 1 μg/ml CDDP", "value": 0.451}, {"measurement": "CVE Average 48 h", "setting": "[2]; 1 μg/ml CDDP", "value": 0.187}, {"measurement": "CVE Average 72 h", "setting": "[2]; 1 μg/ml CDDP", "value": 0.425}, {"measurement": "CVE Average 24 h", "setting": "[2]; 10 μg/ml CDDP", "value": 0.59}, {"measurement": "CVE Average 48 h", "setting": "[2]; 10 μg/ml CDDP", "value": 0.277}, {"measurement": "CVE Average 72 h", "setting": "[2]; 10 μg/ml CDDP", "value": 0.282}, {"measurement": "CVE Average 24 h", "setting": "[2]; 100 μg/ml CDDP", "value": 0.456}, {"measurement": "CVE Average 48 h", "setting": "[2]; 100 μg/ml CDDP", "value": 0.214}, {"measurement": "CVE Average 72 h", "setting": "[2]; 100 μg/ml CDDP", "value": 0.231}, {"measurement": "CVE Average", "setting": "[2]; Run 2, 24 h, 0.1 μg/ml CDDP", "value": 0.766}, {"measurement": "CVE Average", "setting": "[2]; Run 2, 24 h, 1 μg/ml CDDP", "value": 0.387}, {"measurement": "CVE Average", "setting": "[2]; Run 2, 24 h, 10 μg/ml CDDP", "value": 0.824}, {"measurement": "CVE Average", "setting": "[2]; Run 2, 24 h, 100 μg/ml CDDP", "value": 0.41}, {"measurement": "CVE Average", "setting": "[2]; Run 2, 48 h, 0.1 μg/ml CDDP", "value": 1.542}, {"measurement": "CVE Average", "setting": "[2]; Run 2, 48 h, 1 μg/ml CDDP", "value": 0.533}, {"measurement": "CVE Average", "setting": "[2]; Run 2, 48 h, 10 μg/ml CDDP", "value": 0.742}, {"measurement": "CVE Average", "setting": "[2]; Run 2, 48 h, 100 μg/ml CDDP", "value": 0.378}, {"measurement": "CVE Average", "setting": "[2]; Run 2, 72 h, 0.1 μg/ml CDDP", "value": 2.449}, {"measurement": "CVE Average", "setting": "[2]; Run 2, 72 h, 1 μg/ml CDDP", "value": 0.533}, {"measurement": "CVE Average", "setting": "[2]; Run 2, 72 h, 10 μg/ml CDDP", "value": 0.46}, {"measurement": "CVE Average", "setting": "[2]; Run 2, 72 h, 100 μg/ml CDDP", "value": 0.327}, {"measurement": "CVE Average", "setting": "[2]; Run 3, 24 h, 0.1 μg/ml CDDP", "value": 2.043}, {"measurement": "CVE Average", "setting": "[2]; Run 3, 24 h, 1 μg/ml CDDP", "value": 0.459}, {"measurement": "CVE Average", "setting": "[2]; Run 3, 24 h, 10 μg/ml CDDP", "value": 1.477}, {"measurement": "CVE Average", "setting": "[2]; Run 3, 24 h, 100 μg/ml CDDP", "value": 0.473}, {"measurement": "CVE Average", "setting": "[2]; Run 3, 48 h, 0.1 μg/ml CDDP", "value": 1.335}, {"measurement": "CVE Average", "setting": "[2]; Run 3, 48 h, 10 μg/ml CDDP", "value": 0.363}, {"measurement": "CVE Average", "setting": "[2]; Run 3, 48 h, 100 μg/ml CDDP", "value": 0.114}, {"measurement": "CVE Average", "setting": "[2]; Run 3, 72 h, 0.1 μg/ml CDDP", "value": 2.814}, {"measurement": "CVE Average", "setting": "[2]; Run 3, 72 h, 1 μg/ml CDDP", "value": 0.623}, {"measurement": "CVE Average", "setting": "[2]; Run 3, 72 h, 10 μg/ml CDDP", "value": 0.669}, {"measurement": "CVE Average", "setting": "[2]; Run 3, 72 h, 100 μg/ml CDDP", "value": 0.499}]}]}
